Data reported in US20130158264A1, “Polymorphs of OSI-906” (priority 2010, published 2013).
Entries after “also recorded” stand apart in the source; their conditions may differ.

What was measured:
Format in all cases: physicochemical
[1] = Gravimetric moisture sorption; settings: for water adsorbed: 25° C.; for XRPD form of the dried solid following moisture sorption analysis: dried at 60° C./0% RH after the experiment; for stability upon desorption (loss of water): humidity reduced below 15%
Protocol: Gravimetric Moisture Sorption: Gravimetric moisture sorption experiments were carried out on selected materials by first drying the sample at 40% RH and 25° C. until an equilibrium weight was reached or for a maximum of four hours. The sample was then subjected to an isothermal (25° C.) adsorption scan from 40 to 90% RH in steps of 10%. The sample was allowed to equilibrate to an asymptotic weight at each point for a maximum of four hours. Following adsorption, a desorption scan from 85 to 0% RH (at 25° C.) was run in steps of −10% again allowing a maximum of four hours for equilibration to an asymptotic weight. An adsorption scan was then performed from 0% RH to 40% RH in steps of +10% RH. The sample was then dried for 1-2 hours at 60° C. and the resulting solid analyzed by XRPD.

[2] = Slurry experiments (form conversion by XRPD)
Protocol: Slurry Experiments: Approximately 20-50 mg of select crystalline forms were weighed to individual 8 mL vials equipped with a magnetic stir bar. Either THF, water, EtOH, (80:20) EtOH:Water or IPA was added to obtain a free flowing slurry. After 3, 5, 7 and 11 days of equilibration at 50° C. or ambient temperature, solid from each slurry was recovered by centrifuge filtration through 0.45 μm nylon filters. The isolated solids were analyzed by XRPD to check for form conversion. […] (Table 22).

[3] = DSC isothermal hold at 105° C. followed by XRPD; settings: held at 105° C. for five minutes
Protocol: Differential Scanning Calorimetry Analysis:
Differential scanning calorimetry (DSC) analyses were carried out on the samples “as is”. Samples were weighed in an aluminum pan, covered with a pierced lid, and then crimped. Analysis conditions were 30-105, 30-300, 30-350° C. at 10° C./min. In addition, isothermal holds were performed for a duration of five minutes at 105° C. and 200° C.
(See FIG. 49). In an effort to elucidate the additional thermal events, additional DSC experiments were conducted. Form C was held at 105° C. for five minutes, cooled to room temperature and then reheated to the same temperature. […] The isothermal hold experiment was repeated and the sample then exposed to the lab environment (˜40-50% RH) overnight. […] These observations are consistent with the results previously presented following storage of Form C under desiccant conditions.

[4] = Additional experiments to isolate OSI-906 solid forms (desiccant storage, exposure to lab humidity)
Protocol: Form C was confirmed to be a monohydrate of OSI-906 by gravimetric moisture sorption analysis. The solid form adsorbed approximately 4.2 wt % water at 30% RH which is consistent with the theoretical water content (4.1 wt %) of a monohydrate of OSI-906 (See FIG. 47). Upon desorption, hysteresis was observed between 25% RH and 5% RH. […] Based on these findings, an additional experiment was conducted in an effort to isolate this new crystalline form. An XRPD substrate containing Form C was placed in a desiccator at room temperature. After overnight storage, the slide was analyzed immediately by XRPD upon removal from the environment and brief exposure (<10 min) to the lab humidity (40-50% RH).

[5] = Thermal stress experiments (Forms B, D, E, and F) in vacuum oven
Protocol: Thermal Stress Experiments (Forms B, D, E, and F)
Solids were stressed under different temperature (40° C. or 80° C.) in a vacuum oven for a measured time period.

[6] = Solid-state stability under storage conditions (XRPD)
Protocol: Solid-State Stability: Approximately 50 mg of Form A or Forms C+D were weighed to individual 8 mL vials and placed uncapped in the following storage conditions: 40° C. under vacuum, 80° C. under vacuum, desiccant, 25° C./60% RH and 40° C./75% RH. […] (Table 21). To assess the stability of Form A, the solid form was stored at different environmental conditions as described herein. Approximately 50 mg of Form A was weighed to 8 mL vials and placed uncapped in the following storage conditions: 40° C. under vacuum, 80° C. under vacuum, desiccant, 25° C./60% RH and 40° C./75% RH. After 24 hours and seven days of equilibration the solids were analyzed by XRPD. (See Table 21).

[7] = (80:20) EtOH:Water, prolonged equilibration at ambient and elevated temperature
[8] = water, prolonged equilibration at ambient and elevated temperature

Row | SMILES | water adsorbed ([1]; 60% RH) | XRPD form of the dried solid following moisture sorption analysis [1] | form stability in slurry [2, 7] | form stability in slurry ([2]; EtOH, ambient temperature) | form stability in slurry ([2]; EtOH, elevated temperature) | form stability in slurry ([2]; IPA) | form stability in slurry ([2]; THF) | form stability in slurry [2, 8] | stability upon desorption (loss of water) [1] | XRPD Result after thermal stress ([5]; 40° C., 3 d) | also measured
1 | CC1(O)CC(c2nc(-c3ccc4ccc(-c5ccccc5)nc4c3)c3c(N)nccn23)C1 (stereo not drawn) [Form A, cis-3-[8-amino-1-(2-phenyl-quinolin-7-yl)-imidazo[1,5-a]pyrazin-3-yl]-1-methylcyclobutanol] | 0.2 wt % | consistent with the initial form |  |  |  |  |  |  |  |  | hygroscopicity by gravimetric moisture sorption analysis [1]: non-hygroscopic; water adsorbed ([1]; 90% RH): 0.3 wt %
2 | CC1(O)CC(c2nc(-c3ccc4ccc(-c5ccccc5)nc4c3)c3c(N)nccn23)C1 (stereo not drawn) [Form C, cis-3-[8-amino-1-(2-phenyl-quinolin-7-yl)-imidazo[1,5-a]pyrazin-3-yl]-1-methylcyclobutanol] |  | mixture of Form C and an unidentified crystalline form; also recorded: mixture of Forms C+I | stable | exhibiting stability | conversion to Forms A or E | conversion to Form A | conversion to Form A | stable | not stable |  | XRPD form after slurry ([2]; THF, room temperature, 11 day): Form A; XRPD form after DSC isothermal hold [3]: indicative of Form C; water adsorbed ([1]; 30% RH): approximately 4.2 wt %; XRPD form after desiccant storage ([4]; overnight in a desiccator at room temperature): Form I
3 | CC1(O)CC(c2nc(-c3ccc4ccc(-c5ccccc5)nc4c3)c3c(N)nccn23)C1 (stereo not drawn) [Form D, cis-3-[8-amino-1-(2-phenyl-quinolin-7-yl)-imidazo[1,5-a]pyrazin-3-yl]-1-methylcyclobutanol] | approximately 3.9 wt % | mixture of Forms C and D | conversion to Form C | Form C | converting to either Form A or E | conversion to Form A | conversion to Form A | stable | not stable | Form C | solid-state stability (summary in words) ([6]; one and seven days at 25° C./60% RH, 40° C./75% RH and under desiccant conditions): exhibited stability; solid-state stability (summary in words) ([6]; one and seven days at elevated temperature drying conditions (40° C. or 80° C. under vacuum)): conversion to Form C
4 | CC1(O)CC(c2nc(-c3ccc4ccc(-c5ccccc5)nc4c3)c3c(N)nccn23)C1 (stereo not drawn) [Form F, cis-3-[8-amino-1-(2-phenyl-quinolin-7-yl)-imidazo[1,5-a]pyrazin-3-yl]-1-methylcyclobutanol] |  |  |  |  |  |  |  |  |  | Form C | XRPD Result after thermal stress ([5]; 80° C., overnight): Form C
5 | CC1(O)CC(c2nc(-c3ccc4ccc(-c5ccccc5)nc4c3)c3c(N)nccn23)C1 (stereo not drawn) [Form I, cis-3-[8-amino-1-(2-phenyl-quinolin-7-yl)-imidazo[1,5-a]pyrazin-3-yl]-1-methylcyclobutanol] |  |  |  |  |  |  |  |  |  |  | XRPD form after exposure to lab humidity ([4]; 1 hour, lab humidity 40-50% RH): conversion to Form C
